Assays:
H460 (lung) = experiment: Human xenograft model, tumor growth inhibition; type: in vivo, female athymic nude mice
Procedure: To assess in vivo antitumor activity in human xenograft models, female athymic nude mice, 12 to 14 weeks of age, were implanted subcutaneously in the flank with human cancer cells. When the tumors reached approximately 100 mm^3 in size, the mice were pair-matched into various treatment groups. For oral administration, compounds were dissolved in a mixture of 0.5% methylcellulose and 0.1% Tween 80 and administered by gavage to the tumor-bearing mice. For i.v.andi.p..administration, compounds were dissolved in 0.9% NaCl and for the i.v. administration, the compound was administered via the tail vein.
Percent tumor growth inhibition (% TGI) was calculated as
% TGI=(Cday a−Tday a)/(Cday a−Cday 1)×100
Where C is the median tumor volume of the control group, T is the median tumor volume of the treatment group, and day a is the day of assessment.

HCT 116 (colon) = experiment: Human xenograft model, tumor growth inhibition; type: in vivo, female athymic nude mice; conditions: vehicle (Tw/MC) po qd × 14 + 5FU 50 mg/kg iv D1, 8, 15
Procedure: The TGI assessment, the treatment-induced decreases in tumor volume on day 21 of various treatment groups were compared to controls. Percent tumor growth inhibition (% TGI) was calculated as

N.N.O=C([O-])C1(C(=O)[O-])CCC1.[Pt+2] [carboplatin, Carboplatin]
% TGI at Day 15 (H460 (lung); carboplatin 30 mg/kg ip D1, 8): 29%

Nc1ccn([C@@H]2O[C@H](CO)[C@@H](O)C2(F)F)c(=O)n1 [gemcitabine, Gemcitabine]
% TGI at Day 15 (H460 (lung); gemcitabine 80 mg/kg ip D1, 5, 9, 13 + vehicle po qd × 14 d): 36%

CCCCc1nc2cc(/C=C/C(=O)NO)ccc2n1CCN(CC)CC [Compound A8, 3-[2-Butyl-1-(2-diethylamino-ethyl)-1H-benzimidazol-5-yl]-N-hydroxy-acrylamide]
% TGI at Day 15 (H460 (lung); A8 50 mg/kg po qd × 14 d): 33%
% TGI at Day 15 (H460 (lung); A8 75 mg/kg po D1-3, D8-10): 14%

O=c1[nH]cc(F)c(=O)[nH]1 [Compound 5FU, Fluorouracil]
% TGI at Day 15 (HCT 116 (colon)): 34%

Source: patent publication US20100098691A1, “COMBINATION OF BENZIMIDAZOLE ANTI-CANCER AGENT AND A SECOND ANTI-CANCER AGENT” (S'BIO PTE LTD, priority 2001, published 2010)
